pIC50: −log10 of the molar value. Values joined by “and” are separate entries in the source; they are usually repeats but may differ in a detail not shown here. Identical values can stand only once.
What was measured:
Format in all cases: cell-based, human
[1] = system: HT29 (colorectal cancer cell line); assay: FACS uptake of BODIPY FL conjugates (Example 4); details: 200 nM, 5 min
Protocol: FIG. 4A: Conjugate compounds coupled to BODIPY FL were tested for uptake using 200 nM each conjugate and 5 minute incubation with colorectal cancer cell line HT29. Mean fluorescent intensities (MFI). 1,000 cells were sorted by FACS.
Materials and methods: The HT-29 line was originally isolated from a primary tumour in 1964 from a person. This cell line is positive for expression of N-ras and overexpression of p53 antigen. The human colon adenocarcinoma cell line HT29, is not only used to study the biology of human colon cancers, but it is receiving special interest in studies focused on food digestion and bioavailability due to the ability to express characteristics of mature intestinal cells. The application of this cell line to transport studies of drugs and food compounds is illustrated, especially when the effect of the mucus layer is considered or used as co-culture in combination with Caco-2 cells. These cells have shown a high rate of glucose consumption and therefore, they require high glucose concentration in the medium. Verhoeck et al., 2015.
For these experiments, HT-29 or MEF cells were diluted on αMEM media (supplemented with 10% FBS+1% penicillin-streptomycin) to give a 250 cells/μL suspension of which 200 μL were aliquoted into each well of a 96 well plate followed by incubation for 24 hours. Next, 2 μL of 100 μM stock solutions in DMSO from the conjugates coupled to BODIPY were diluted with 998 μL of αMEM media to give a 200 nM solution. After 24 hour incubation, media was removed and 200 μL of 138 and pantothenic acid/pantothenic acid derivatives coupled to BODIPY 200 nM solutions were added and cells were incubated for 5 minutes at 37 °C. After 5 minutes, the compounds and DMSO solutions were removed and cells were washed with PBS. Then, 100 μL of TrypLE trypsin were added to each well and incubated for 5 minutes at 37 °C. After this time, 100 μL of DMEM media were added to the wells and samples were sorted through FACS biosort. The studies were completed in duplicated wells.

Jurkat cells = assay: FACS uptake of BODIPY FL conjugates in Jurkat cells (Example 3); details: 200 nM
Protocol: FIG. 3B: Conjugate compounds coupled to BODIPY FL were tested for uptake using 200 nM each conjugate and 5 minute incubation with immortalized T lymphocyte cell line, Jurkat cells. Mean fluorescent intensities (MFI). 1,000 cells sorted by FACS. Bars represent mean±SD. Results represent a single experiment done in duplicate.
Materials and methods: Jurkat cells have been previously shown to be defective in the expression of two lipid phosphatases, PTEN (phosphatase and tensin homologue) and SHIP (SH2-domain-containing inositol polyphosphate 5′ phosphatase). The biological implications of SHIP deficiency in T cells remain under evaluation, but the loss of PTEN leads to activation of the phosphatidylinositol 3-kinase (PI3K)-signalling pathway. See Abraham and Weiss, 2004. This activation of PI3K protein is also on NZM40 melanoma cell line, and represents a key mutation for its sustained proliferation. See Silva et al., 2017. For these experiments, Jurkat cells were diluted on RPMI media (supplemented with 10% FBS+1% penicillin-streptomycin) to afford 400 cells/μL. 2 μL of 100 μM stock solutions in DMSO from 138 and pantothenic acid/pantothenic acid derivatives coupled to BODIPY were diluted with 998 μL of RPMI media (supplemented with 10% FBS+1% penicillin-streptomycin) to afford 200 nM solution. 100,000 cells were dispensed to Eppendorf tubes, centrifuged for 1.5 min at 5000 rcf and the supernatant was removed. The cells then were incubated with 500 μL of solutions at 200 nM for 4.5 min and 37 °C. After the incubation time, cells were centrifuged for 1.5 minutes at 5000 rcf. Supernatant was removed and cell pellet re-suspended in 200 μL fresh RPMI media, transferred to 96 well-plate and run on FACS machine, approximately 1,000 cells analysed.

[2] = system: NZM40 (NRAS Q16H) melanoma cells; assay: FACS uptake of BODIPY FL conjugates, 200 nM, 5 min (Example 2)
Protocol: FIG. 2. Conjugate compounds coupled to BODIPY FL were tested for uptake using 200 nM each conjugate and 5 minute incubation with melanoma cell line NZM11 (BRAF V600E mutant metastatic melanoma), melanoma cell line NZM40 (NRAS Q16H mutant metastatic melanoma) and melanoma cell line NZM9 (BRAF and NRAS wildtype metastatic melanoma). Mean fluorescent intensities (MFI). 2,000 cells (NZM11), 1,000 cells (NZM40) and 500-1,000 cells (NZM9). Cells were sorted by FACS. Bars represent mean±SD. Results were from a single experiment done in triplicate.
NZM40 is an adherent cell line which was originally derived from a metastatic melanoma from a patient, in 2004. This human metastatic melanoma is identified with code CBA-1381 from Cell bank Australia. […] Ras is a superfamily of proteins implicated in cell growth, survival and differentiation. NRAS (neuroblastoma rat sarcoma) was the first oncogene recognized in melanoma and mutations in NRAS account for 20% of all melanomas. NRAS mutations primarily occur at position 61 and involve amino acid change from glutamine (Q) to arginine (R), lysine (K), leucine (L) or histidine (H). These mutations block NRAS into a GTP-bound state damaging its GTPase activity (FIG. 1). Patients are usually older (>55 years) with previous UV exposure. See Garcia-Alverez et al., 2021.
For screening, NZM11, NZM40 and NZM9 cells were suspended at […] dispensed into 96 well plates and left to settle for 48 hours. Then, 10 μL of 10 mM stock solutions in DMSO for the conjugates were diluted with HBSS to afford 400 nM solution. Next, 400 nM compounds and DMSO solutions were diluted 1:1 with MEMα media to afford 200 nM solutions. After 48 hours the media was removed from the 96 well plates and 200 μL of 200 nM conjugates solutions dispensed to each well (in triplicate) and incubated for 5 minutes at 37 °C. After 5 minutes, the media was removed and cells washed with PBS. Then, 100 μL of TrypLE trypsin (ThermoFisher Scientific) were added to each well and incubated for 5 minutes at 37 °C after which, 100 μL of MEMα media were added and samples were sorted through FACS biosort. The FACS results output were represented as the mean of the fluorescence intensities (in arbitrary units) measured for cells sorted in every sample.

[3] = system: NZM11 (BRAF V600E mutant metastatic melanoma) cells; assay: Sulforhodamine B (SRB) assay of viability / proliferation, auranofin conjugates (Example 8)
Protocol: FIG. 8: Effect of 136 and 137 (auranofin conjugates) on viability of NZM11 melanoma cells. Cells were incubated with 136 and 137 at 10 μM final concentration and kept at 37 °C for 48 hours. Pantothenic acid (PA), CJ-15,801, and biotin were tested at 200 μM final concentration. […] Two batches of auranofin were tested at 10 μM final concentration.
FIG. 9: The viability data from FIG. 8 was normalised to the treatment plate and DMSO control and plotted as a percentage of cell growth. Individual data points represent technical replicates. Curve indicates non-linear regression slope, which allows determination of IC50 values.
Materials and methods: NZM11 cells were cultured in MEMα media with an initial count of 1020 cells/μL. The cells were then diluted to get 25 cells per μL and 200 μL of this suspension (5000 cells per well), dispensed into 96 well plates and left to settle for 24 hours. 10 mM stock solutions of 136, 137, and auranofin were diluted with 1% FBS MEMα media to give 10 nM, 30 nM, 100 nM, 300 nM, 1 μM, 3 μM, 10 μM, 30 μM and 100 μM solutions. After 24 hours the media was removed from the 96 well plates. To individual wells 200 μL of each dilution were dispensed in triplicate for three groups (136, 137, and auranofin): 1% FBS MEMα media only (DMSO control), 10 nM, 30 nM, 100 nM, 300 nM, 1 μM, 3 μM, 10 μM, 30 μM and 100 μM. The cells were incubated at 37 °C, 5% 02 and 5% CO2 for 48 hours.
In order to test the potency of 136 and 137, the IC50 values were calculated for these auranofin conjugates. For analysis of the treatment plate (Tz) a SRB assay was utilised. For this assay, 50 μL of 50% (w/v) ice-cold trichloroacetic acid (TCA) was added to each well. To achieve this, 5 g of TCA was made up to 10 mL with milliQ H2O. This was cooled on ice. Incubation was carried out for 1 hour at 4 °C to fix cells. TCA and media were removed from cells. Five milliQ washes were carried out and the plate was left to air dry. Next, 50 μL of 0.4% SRB solution (prepared in 1% acetic acid) was added to each well and incubated for 10 minutes at room temperature. The SRB solution was removed and five milliQ washes were carried out. Then, 100 μL of 10 mM Tris solution was added to each well, and the dye was solubilised. Absorbance at 515 nm was read on plate reader. Data was normalized to Tz plate, as per NCI60 screening method (https://dtp.cancer.gov/discovery_development/nci-60/methodology.htm).

[4] = system: NZM11 (BRAF V600E) melanoma cells; assay: Time course of uptake by FACS (Example 5); details: 200 nM
Protocol: FIG. 5A: Time course of uptake for 124, 125, 131, 132 conjugate compounds. Tests were performed using 200 nM each conjugate and 5, 30, or 60 minute incubation with melanoma cell line NZM11 (BRAF V600E mutant metastatic melanoma). Mean fluorescent intensities (MFI), n=300 mean±SD. The cells were sorted by FACS.
FIG. 5B: Time course of uptake for 124 and 3-azido BODIPY FL. Tests were performed using 200 nM each compound and 1 or 3 hour incubation with melanoma cell line NZM11 (BRAF V600E mutant metastatic melanoma). Mean fluorescent intensities (MFI). n=2000-3000 mean±SD. The cells were sorted by FACS.
Materials and methods: NZM11 cells were suspended at […] dispensed into 96 well plates and left to settle for 48 hours. 10 μL of 10 mM stock solutions in DMSO from the conjugates coupled to BODIPY were diluted with HBSS to afford 400 nM solution. Then, 400 nM compounds and DMSO solutions were diluted 1:1 with MEMα media to afford 200 nM solutions. After 48 hours the media was removed from the 96 well plates and 200 μL of 200 nM conjugates solutions dispensed to each well (in duplicate) and incubated for 5 minutes, 30 minutes and 60 minutes at 37 °C (for the first test) or 60 minutes and 3 hours (for the second test). After indicated incubation time, the media was removed and cells washed with PBS. 100 μL of TrypLE trypsin (ThermoFisher Scientific) were added to each well and incubated for 6.5 minutes at 37 °C after which, 100 μL of MEMα media were added and samples were sorted through FACS biosort. FACS results output represented the mean of the fluorescence intensities (in arbitrary units) measured for cells sorted in every sample. Uptake rate was calculated by the equation: Uptake rate=(MFI2−MFI1)/(T2−T1)
whereby: MFI=mean fluorescent intensities; T=time (at which time the sample was taken); Uptake rate units: fluorescence intensities units per minute.

## CC1=CC(C)=[N+]2C1=Cc1ccc(CCCn3cc(CCNC(=O)/C=C\NC(=O)[C@@H]4OC(C)(C)OCC4(C)C)nn3)n1[B-]2(F)F [Compound 129, (Z)—N-((((3-[4,4-Difluoro-5,7-dimethyl-4-bora-3a,4a-diaza-s-indacene-3-yl]propyl)-1H-1,2,3-triazol-4-yl)ethylamino)-3-oxoprop-1-enyl)-2,2,5,5-tetramethyl-1,3-dioxane-4-carboxamide]
[1]
  uptake (fluorescent intensities): higher uptakes than their diol counterparts
Jurkat cells
  uptake / targeting: showed targeting
[2]
  uptake (fluorescence intensities): showed selectivity

## (R,E)-((4-(3-(2,4-dihydroxy-3,3-dimethylbutanamido)acrylamido)phenyl)thio)(triethyl-phosphaneyl) Gold (I) [Compound 137]
[3]; 10 μM, 48 hours
  reduction on viability, as compared to auranofin itself: more than 95%
[3]; 138 20 times more concentrated (200 μM)
  effect of CJ-15,801/138 on activity: not affected
[3]; NZM11, 48 hours
  IC50 relative to auranofin: five times higher than auranofin
[3]; NZM11, 48 hours, SRB assay
  pIC50: 5.53 and ~5.55
[3]; vitamins 20 times more concentrated (200 μM)
  effect of biotin and pantothenic acid on activity: not affected

## CC1=CC(C)=[N+]2C1=Cc1ccc(CCCn3cc(CCNC(=O)/C=C\NC(=O)[C@@H](O)C(C)(C)CO)nn3)n1[B-]2(F)F [Compound 130, (Z)—N-((((3-[4,4-Difluoro-5,7-dimethyl-4-bora-3a,4a-diaza-s-indacene-3-yl]propyl)-1H-1,2,3-triazol-4-yl)ethylamino)-3-oxoprop-1-enyl)-2,4-dihydroxy-3,3-dimethylbutanamide]
[2]
  uptake (fluorescence intensities): showed selectivity

## CC1=CC(C)=[N+]2C1=Cc1ccc(CCCN=[N+]=[N-])n1[B-]2(F)F [3-azido BODIPY FL, 3-Azido[4,4-difluoro-5,7-dimethyl-4-bora-3a,4a-diaza-s-indacene-3-yl]propane, reference compound]
[4]; 1 hour
  times lower intensities than 124: 6 times
[4]; 3 hours
  times lower intensities than 124: 6 times
[4]; NZM11, time course
  uptake / intensities, in words: low uptake rate

Reference: patent publication US20260364186A1, “Chemical Conjugates, Compositions, and Methods of Preparation and Use Thereof” (Transfection Holdings Limited, priority 2022, published 2026)
